Data set [1] in a line: Metabolic stability in human liver microsome. The following applies: 1 mg/mL microsomes, NADPH; for microsomal CLint at 1 μM: human, pooled human liver microsomes, pH 7.4, 1 μM compound. The data set is classed as in vitro ADME. The method, then:
(§1) Rat hepatocytes in male gender and human liver microsome were obtained from commercial vendors (e.g., BioreclamationIVT) and stored at −150° C. prior to use.
For metabolic stability assay with human liver microsome, 1 μM of each test compound was incubated with 1 mg/mL of microsomes (Pooled HLM with 20 mg/ml protein cone) at 37° C. in 250 μL of buffer (100 mM phosphate buffer, pH-7.4) containing 1 mM NADPH solution. […] was quenched with 5 volumes chilled acetonitrile at different time points 0, 0.5, 5, 10, 15, 20 and 30 min in a fresh 96 well plate. The quench plate was centrifuged at 4000 rpm for 15 min. 40 μL of supernatant was diluted to 200 μL with pure water and analyzed using LC-MS/MS. […]
Background: Liver microsomes are a subcellular fraction often used to study metabolism.

Data set [2] relates to phosphorylation of STAT6. The experiment in a line: Cellular p-STAT6 assay, IL-13 stimulated THP-1 cells, flow cytometry. It is filed as cell-based. To be noted: IL-13 10 ng/ml, read-out: pSTAT6 IC50. The method, boiled down: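 THP-1 cells (2×10^5/well, RPMI1640 + 10% FBS) preincubated 60 min at room temperature with compound (1 μM to 0.3 nM), then stimulated 30 min with IL-13 at 10 ng/ml. Fixed, methanol-permeabilized cells stained with PE anti-pSTAT6 and read by flow cytometry; IC50 from dose-response curves.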
(In general: A flow cytometer gives signals particle by particle.)

The target of data set [3] is T1, JAK1 (Homo sapiens, UniProt P23458).
T1 construct: purchased Carna Biosciences
Put plainly: Lance Ultra Kinase Assay, recombinant JAK1. The data set is classed as biochemical. To be noted: 5 mM ATP. The method, boiled down: (§2)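 Each recombinant kinase preincubated with or without compound 15 min at room temperature, then reaction started with 5 mM ATP and substrate peptide for 60 min. Stopped with EDTA-containing detection mix; TR-FRET read at ex 320 nm, 665/615 nm emission ratio taken as kinase activity.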

The target in data set [4] is T2, JAK2 (Homo sapiens, UniProt O60674).
T2 construct: purchased Carna Biosciences
Put plainly: Lance Ultra Kinase Assay, recombinant JAK2. The data set is classed as biochemical. The following applies: 5 mM ATP. The method, boiled down:
as §2

Data set [5] has as its target T3, TYK2 (Homo sapiens, UniProt P29597).
T3 construct: purchased Carna Biosciences
Put plainly: Lance Ultra Kinase Assay, recombinant TYK2. The data set is classed as biochemical. To be noted: 5 mM ATP. In short, it runs like this: as §2

The target of data set [6] is T4, JAK3 (Homo sapiens, UniProt P52333).
T4 construct: purchased Carna Biosciences
T4 sequence (P52333 1-1124): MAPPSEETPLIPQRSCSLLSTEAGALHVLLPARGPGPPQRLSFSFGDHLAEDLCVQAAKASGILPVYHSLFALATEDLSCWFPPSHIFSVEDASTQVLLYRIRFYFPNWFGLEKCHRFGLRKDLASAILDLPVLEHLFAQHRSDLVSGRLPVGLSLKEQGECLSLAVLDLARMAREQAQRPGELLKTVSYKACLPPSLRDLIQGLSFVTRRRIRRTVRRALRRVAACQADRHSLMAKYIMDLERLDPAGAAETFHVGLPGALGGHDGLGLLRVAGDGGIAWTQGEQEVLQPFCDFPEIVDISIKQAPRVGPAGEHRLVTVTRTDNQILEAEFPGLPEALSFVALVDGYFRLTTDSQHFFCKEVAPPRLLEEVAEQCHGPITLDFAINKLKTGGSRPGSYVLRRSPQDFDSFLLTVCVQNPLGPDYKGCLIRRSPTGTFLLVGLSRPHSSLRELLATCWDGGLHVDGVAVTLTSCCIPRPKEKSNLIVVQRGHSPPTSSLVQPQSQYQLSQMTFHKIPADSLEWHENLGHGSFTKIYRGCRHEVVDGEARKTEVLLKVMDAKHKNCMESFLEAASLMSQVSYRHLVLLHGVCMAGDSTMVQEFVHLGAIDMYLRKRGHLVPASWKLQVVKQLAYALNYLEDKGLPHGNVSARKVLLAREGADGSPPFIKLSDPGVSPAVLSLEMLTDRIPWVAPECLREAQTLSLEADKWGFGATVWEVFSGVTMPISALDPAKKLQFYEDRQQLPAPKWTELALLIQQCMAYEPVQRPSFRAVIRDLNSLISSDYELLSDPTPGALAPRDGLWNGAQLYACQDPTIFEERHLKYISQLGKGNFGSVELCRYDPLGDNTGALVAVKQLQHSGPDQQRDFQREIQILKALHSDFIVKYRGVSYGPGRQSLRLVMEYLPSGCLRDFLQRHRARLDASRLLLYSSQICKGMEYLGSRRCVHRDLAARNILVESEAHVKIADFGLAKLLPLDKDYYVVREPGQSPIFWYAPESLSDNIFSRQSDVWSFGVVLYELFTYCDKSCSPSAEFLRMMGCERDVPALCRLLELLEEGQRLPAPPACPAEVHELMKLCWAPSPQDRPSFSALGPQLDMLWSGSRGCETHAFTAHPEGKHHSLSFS
The experiment in a line: Lance Ultra Kinase Assay, recombinant JAK3. To be noted: 5 mM ATP. The data set is classed as biochemical. In short, it runs like this: as §2

Data set [7] in a line: Metabolic stability in rat hepatocytes. The data set is classed as in vitro ADME. To be noted: 1 μM compound, male rat hepatocytes. The method, then:
as §1
For metabolic stability assay with rat heptatocytes, vials of cryopreserved hepatocytes or microsome were removed from storage, ensured that vials remain at cryogenic temperatures. 1 μM of each test compound (in Acetonitrile; 0.01% DMSO) was incubated with 250 μL of hepatocyte cells (1×10^6 cells/ml) in a 96 deep well plate. […] 40 μL of supernatant was diluted to 200 μL with pure water and analyzed using LC-MS/MS.
In vitro hepatocyte clearance was estimated based on determination of elimination half-life (T1/2) of compounds disappearance from their initial concentrations. Peak area ratios of each compound (test or control) to IS was calculated. Ln (% Control) versus Incubation Time (min) curve was plotted, and the slope of a linear fitting line was calculated. Drug elimination rate constant k (min−1), T1/2 (min), and in vitro intrinsic clearance CLint (μL/min/E6) was calculated according to the following equations: k=−slope T1/2=0.693/k CLint=k/Chep Where Chep (cells×μL^−1) is the cell concentration in the incubation system.

[8] abbreviates: Homo sapiens, THP-1, THP-1 cells.

This is an account of results in patent publication US12606544B2, “JAK1 selective kinase inhibitor” (DIZAL (JIANGSU) PHARMACEUTICAL CO., LTD., priority 2019, dated 2026).

pIC50: −log10 of the molar value. Read-outs that look alike come from different tables or passages of the source. Bounds are passed on as bounds.

T1 sequence (P23458 whole entry): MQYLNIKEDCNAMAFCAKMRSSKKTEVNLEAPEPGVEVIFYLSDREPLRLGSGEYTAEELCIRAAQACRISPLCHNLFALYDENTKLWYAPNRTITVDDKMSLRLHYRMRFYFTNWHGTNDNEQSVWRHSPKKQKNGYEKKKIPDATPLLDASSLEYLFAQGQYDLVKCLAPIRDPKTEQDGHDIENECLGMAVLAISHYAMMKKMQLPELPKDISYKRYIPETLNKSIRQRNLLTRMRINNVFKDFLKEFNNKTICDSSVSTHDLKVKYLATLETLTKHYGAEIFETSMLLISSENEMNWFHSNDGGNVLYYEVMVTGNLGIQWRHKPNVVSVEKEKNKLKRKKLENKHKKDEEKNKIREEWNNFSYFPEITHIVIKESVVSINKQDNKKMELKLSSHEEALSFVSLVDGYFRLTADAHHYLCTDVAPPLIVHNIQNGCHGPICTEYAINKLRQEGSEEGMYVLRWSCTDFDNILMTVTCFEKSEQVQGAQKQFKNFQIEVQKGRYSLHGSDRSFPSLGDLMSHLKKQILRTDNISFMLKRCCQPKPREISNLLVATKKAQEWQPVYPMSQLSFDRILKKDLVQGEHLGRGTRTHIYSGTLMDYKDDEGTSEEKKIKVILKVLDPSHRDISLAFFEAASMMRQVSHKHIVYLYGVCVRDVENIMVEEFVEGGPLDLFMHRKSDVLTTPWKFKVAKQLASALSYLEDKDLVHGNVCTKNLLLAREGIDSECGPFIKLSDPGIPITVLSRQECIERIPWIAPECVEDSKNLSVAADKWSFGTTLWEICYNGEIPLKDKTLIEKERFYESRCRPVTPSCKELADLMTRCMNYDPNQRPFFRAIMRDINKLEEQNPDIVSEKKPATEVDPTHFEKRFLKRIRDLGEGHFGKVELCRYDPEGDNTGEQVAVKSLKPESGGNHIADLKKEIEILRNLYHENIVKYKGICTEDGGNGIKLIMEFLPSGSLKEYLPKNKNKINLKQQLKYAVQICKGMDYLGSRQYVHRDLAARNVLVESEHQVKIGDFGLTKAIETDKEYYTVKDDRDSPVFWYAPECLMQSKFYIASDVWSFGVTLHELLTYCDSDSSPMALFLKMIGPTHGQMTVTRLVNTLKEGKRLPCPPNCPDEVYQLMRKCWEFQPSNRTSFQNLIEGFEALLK
T2 sequence (O60674 whole entry): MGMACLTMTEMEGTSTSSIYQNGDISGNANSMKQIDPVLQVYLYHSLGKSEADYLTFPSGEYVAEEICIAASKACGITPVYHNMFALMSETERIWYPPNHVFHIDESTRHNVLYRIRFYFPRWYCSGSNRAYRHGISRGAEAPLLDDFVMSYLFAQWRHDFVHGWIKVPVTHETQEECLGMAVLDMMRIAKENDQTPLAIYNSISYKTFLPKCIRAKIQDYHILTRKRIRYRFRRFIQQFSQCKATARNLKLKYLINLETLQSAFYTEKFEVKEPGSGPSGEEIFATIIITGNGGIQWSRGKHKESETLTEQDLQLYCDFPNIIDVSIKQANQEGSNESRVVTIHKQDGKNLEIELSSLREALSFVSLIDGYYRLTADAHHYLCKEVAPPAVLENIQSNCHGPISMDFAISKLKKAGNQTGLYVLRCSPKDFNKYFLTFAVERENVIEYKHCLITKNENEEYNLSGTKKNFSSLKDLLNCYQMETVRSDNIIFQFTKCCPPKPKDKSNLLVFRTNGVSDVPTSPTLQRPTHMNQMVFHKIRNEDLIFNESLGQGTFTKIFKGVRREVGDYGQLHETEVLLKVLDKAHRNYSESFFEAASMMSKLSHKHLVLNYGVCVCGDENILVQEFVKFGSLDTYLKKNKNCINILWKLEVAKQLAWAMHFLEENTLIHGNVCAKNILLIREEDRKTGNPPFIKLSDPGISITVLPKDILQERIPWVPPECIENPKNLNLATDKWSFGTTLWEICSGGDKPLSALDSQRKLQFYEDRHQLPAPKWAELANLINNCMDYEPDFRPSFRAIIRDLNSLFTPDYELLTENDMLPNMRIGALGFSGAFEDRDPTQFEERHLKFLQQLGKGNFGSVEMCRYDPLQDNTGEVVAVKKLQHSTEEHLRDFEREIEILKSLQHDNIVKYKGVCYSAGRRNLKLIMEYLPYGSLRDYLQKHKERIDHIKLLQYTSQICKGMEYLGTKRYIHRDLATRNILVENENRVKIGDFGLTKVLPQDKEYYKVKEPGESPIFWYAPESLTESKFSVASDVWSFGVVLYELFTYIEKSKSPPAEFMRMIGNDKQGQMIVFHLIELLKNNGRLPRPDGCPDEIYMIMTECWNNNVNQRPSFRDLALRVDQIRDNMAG
T3 sequence (P29597 whole entry): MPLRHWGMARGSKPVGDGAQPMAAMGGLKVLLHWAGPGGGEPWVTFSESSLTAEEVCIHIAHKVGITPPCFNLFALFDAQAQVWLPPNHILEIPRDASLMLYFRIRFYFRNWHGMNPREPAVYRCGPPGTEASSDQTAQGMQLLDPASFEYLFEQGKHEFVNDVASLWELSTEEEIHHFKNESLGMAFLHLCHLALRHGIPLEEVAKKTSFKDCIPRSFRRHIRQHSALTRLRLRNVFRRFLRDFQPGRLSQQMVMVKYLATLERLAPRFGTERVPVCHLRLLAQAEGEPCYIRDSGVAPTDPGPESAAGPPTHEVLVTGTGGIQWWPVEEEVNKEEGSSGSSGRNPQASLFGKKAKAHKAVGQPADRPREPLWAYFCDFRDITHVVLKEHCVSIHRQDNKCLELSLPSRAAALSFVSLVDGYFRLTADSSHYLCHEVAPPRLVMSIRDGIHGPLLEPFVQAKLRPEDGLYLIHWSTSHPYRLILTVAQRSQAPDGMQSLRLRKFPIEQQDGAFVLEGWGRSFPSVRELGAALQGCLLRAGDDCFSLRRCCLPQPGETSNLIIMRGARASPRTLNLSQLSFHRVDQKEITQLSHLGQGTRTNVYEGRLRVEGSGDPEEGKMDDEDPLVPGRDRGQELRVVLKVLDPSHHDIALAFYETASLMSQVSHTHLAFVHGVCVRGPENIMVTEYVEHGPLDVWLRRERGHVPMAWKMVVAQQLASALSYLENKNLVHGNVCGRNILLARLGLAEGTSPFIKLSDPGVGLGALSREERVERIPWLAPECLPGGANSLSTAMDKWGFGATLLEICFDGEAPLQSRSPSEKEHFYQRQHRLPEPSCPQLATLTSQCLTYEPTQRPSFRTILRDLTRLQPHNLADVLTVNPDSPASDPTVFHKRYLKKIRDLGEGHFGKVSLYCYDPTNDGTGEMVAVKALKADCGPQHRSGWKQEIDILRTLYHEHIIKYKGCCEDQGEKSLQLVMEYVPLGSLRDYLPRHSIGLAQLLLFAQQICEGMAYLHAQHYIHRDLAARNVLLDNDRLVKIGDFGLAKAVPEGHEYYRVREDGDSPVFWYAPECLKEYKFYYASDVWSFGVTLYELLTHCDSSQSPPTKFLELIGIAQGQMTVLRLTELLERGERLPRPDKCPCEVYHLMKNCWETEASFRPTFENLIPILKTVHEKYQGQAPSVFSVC

In the case of `COC[C@H](C(=O)Nc1cccc2c(-c3nc(Nc4cnn(C5CCOC5)c4)ncc3F)c[nH]c12)N1CCN(C)CC1` (single isomer, unassigned; isomer 1) [Example 30], in data set [1], the intrinsic clearance (microsomal CLint) (as a rule, the rate of metabolic loss divided by the concentration) at 1 μM turned out to be 13.5 µL/min/mg. Moreover, the pIC50 (commonly the IC50 on a negative log10 scale, so that one unit is a factor of ten) in data set [2] (setting [8]) was 7.99; in data set [3], 9.82; in data set [4] it was 7.02; in data set [5], 5.93; in data set [6] it was < 5.00. In data set [7], the “Rat Hepatocyte CLint” value amounted to 4.4 μL/min/10^6 cells.
In the case of `COC[C@H](C(=O)Nc1cccc2c(-c3nc(Nc4cnn(C5CCOC5)c4)ncc3F)c[nH]c12)N1CCN(C)CC1` (single isomer, unassigned; isomer 2) [Example 33], the “Human liver microsome CLint” value in data set [1] (1 μM compound) worked out at 11.1 µL/min/mg. The pIC50 in data set [2] (THP-1 cells) is 7.95; in data set [3] it was 9.85; in data set [4], 6.96; in data set [5], 5.66; in data set [6], < 5.00. The “Rat Hepatocyte CLint” value in data set [7] is reported as 6.8 μL/min/10^6 cells.
In data set [1], `COC[C@H](C(=O)Nc1cccc2c(-c3nc(Nc4ccc(CO)nc4)ncc3F)c[nH]c12)N1CCN(C)CC1` [Example 1, (R)-N-(3-(5-fluoro-2-((6-(hydroxymethyl)pyridin-3-yl)amino)pyrimidin-4-yl)-1H-indol-7-yl)-3-methoxy-2-(4-methylpiperazin-1-yl)propanamide] had an intrinsic clearance (microsomal CLint) at 1 μM of 4.9 µL/min/mg. Further, the pIC50 in data set [2] (setting [8]) was 8.40; in data set [3], 9.89; in data set [4] it was 7.07; in data set [5], 6.19; in data set [6], < 5.00. The “Rat Hepatocyte CLint” value in data set [7] is recorded as 68.8 μL/min/10^6 cells.
`COC[C@H](C(=O)Nc1cccc2c(-c3nc(Nc4ccnc(C(=O)OC)c4)ncc3F)c[nH]c12)N1CCN(C)CC1` [Example 4, Methyl-(R)-4-((5-fluoro-4-(7-(3-methoxy-2-(4-methylpiperazin-1-yl)propanamido)-1H-indol-3-yl)pyrimidin-2-yl)amino)picolinate] showed a microsomal CLint at 1 μM in data set [1] of 14.4 µL/min/mg. Besides, the pIC50 is 8.29 in data set [2] (setting [8]); 9.59 in data set [3]; 7.09 in data set [4]; 5.74 in data set [5]; < 5.00 in data set [6]. Besides, in data set [7], the “Rat Hepatocyte CLint” value is given as >300 μL/min/10^6 cells.
On to `COC[C@H](C(=O)Nc1cccc2c(-c3nc(Nc4ccc(C(=O)OC)nc4)ncc3F)c[nH]c12)N1CCN(C)CC1` [Example 12, methyl (R)-5-((5-fluoro-4-(7-(3-methoxy-2-(4-methylpiperazin-1-yl)propanamido)-1H-indol-3-yl)pyrimidin-2-yl)amino)picolinate], for which the microsomal CLint at 1 μM in data set [1] was > 300 µL/min/mg. The pIC50 in data set [2] (setting [8]) is 8.14; in data set [3], 9.77; in data set [4] it was 6.33; in data set [5] it was 5.42; in data set [6] it was < 5.00. The “Rat Hepatocyte CLint” value in data set [7] is reported as 226.4 μL/min/10^6 cells.
In turn, `COC[C@H](C(=O)Nc1cccc2c(-c3nc(Nc4ccc5cn[nH]c5c4)ncc3F)c[nH]c12)N1CCN(C)CC1` [Example 13, (R)-N-(3-(2-((1H-indazol-6-yl)amino)-5-fluoropyrimidin-4-yl)-1H-indol-7-yl)-3-methoxy-2-(4-methylpiperazin-1-yl)propanamide] gave a microsomal CLint at 1 μM in data set [1] of 83.1 µL/min/mg. The pIC50 in data set [2] (setting [8]) is 8.14; in data set [3] it was 9.48; in data set [4], 7.06; in data set [5], 5.86; in data set [6] it was 5.05. In data set [7], the “Rat Hepatocyte CLint” value turned out to be 5.5 μL/min/10^6 cells.
With `COC[C@H](C(=O)Nc1cccc2c(-c3nc(Nc4ccnc(CCC(=O)OC)c4)ncc3F)c[nH]c12)N1CCN(C)CC1` [Example 15, methyl (R)-3-(4-((5-fluoro-4-(7-(3-methoxy-2-(4-methylpiperazin-1-yl)propanamido)-1H-indol-3-yl)pyrimidin-2-yl)amino)pyridin-2-yl)propanoate], the microsomal CLint at 1 μM in data set [1] was > 300 µL/min/mg. For the same compound, the pIC50 was 8.14 in data set [2] (setting [8]); 9.72 in data set [3]; 7.70 in data set [4]; 5.84 in data set [5]; < 5.00 in data set [6]. Also, the “Rat Hepatocyte CLint” value in data set [7] is 68.0 μL/min/10^6 cells.
In the case of `COC[C@H](C(=O)Nc1cccc2c(-c3nc(Nc4ccc(OCCO)nc4)ncc3F)c[nH]c12)N1CCN(C)CC1` [Example 16, (R)-N-(3-(5-fluoro-2-((6-(2-hydroxyethoxy)pyridin-3-yl)amino)pyrimidin-4-yl)-1H-indol-7-yl)-3-methoxy-2-(4-methylpiperazin-1-yl)propanamide], the microsomal CLint at 1 μM in data set [1] was 3 µL/min/mg. Moreover, the pIC50 is 8.13 in data set [2] (setting [8]); 9.44 in data set [3]; 6.86 in data set [4]; 5.70 in data set [5]; < 5.00 in data set [6]. In data set [7], the “Rat Hepatocyte CLint” value is listed as 42.1 μL/min/10^6 cells.
In data set [1], `COC[C@H](C(=O)Nc1cccc2c(-c3nc(Nc4ccc5c(C)n[nH]c5c4)ncc3F)c[nH]c12)N1CCN(C)CC1` [Example 17, (R)-N-(3-(5-fluoro-2-((3-methyl-1H-indazol-6-yl)amino)pyrimidin-4-yl)-1H-indol-7-yl)-3-methoxy-2-(4-methylpiperazin-1-yl)propanamide] registered a microsomal CLint at 1 μM of 57.2 µL/min/mg. Further, the pIC50 is 8.12 in data set [2] (setting [8]); 9.74 in data set [3]; 7.37 in data set [4]; 5.92 in data set [5]; 5.11 in data set [6]. For the same compound, in data set [7], the “Rat Hepatocyte CLint” value came out at 4.5 μL/min/10^6 cells.
For the compound `COC[C@H](C(=O)Nc1cccc2c(-c3nc(Nc4ccc5c(c4)C(=O)NCC5)ncc3F)c[nH]c12)N1CCN(C)CC1` [Example 35, (R)-N-(3-(5-fluoro-2-((1-oxo-1,2,3,4-tetrahydroisoquinolin-7-yl)amino)pyrimidin-4-yl)-1H-indol-7-yl)-3-methoxy-2-(4-methylpiperazin-1-yl)propanamide], the intrinsic metabolic clearance (microsomal CLint) at 1 μM in data set [1] worked out at 9.2 µL/min/mg. The pIC50 in data set [2] (setting [8]) is 7.95; in data set [3], 9.59; in data set [4] it was 6.70; in data set [5], 5.69; in data set [6], < 5.00. Further, the “Rat Hepatocyte CLint” value in data set [7] came to 2.2 μL/min/10^6 cells.
